Test [1] concerns store-operated Ca^2+ entry (SOCE). As to the kind of experiment: Ca^2+ imaging, store-operated Ca^2+ entry in MEFs. The test is classed as cell-based, mouse. As to conditions: MEFs from WT mice. Here is the method: (§1) MEFs were cultured in glass bottom dishes coated with fibronectin (2.5 μg/cm^2, Sigma, St. Louis, Mo., USA) for 24-48 hours. Intracellular Ca^2+ measurements were done similar to published earlier (57). Briefly, the cells were loaded with fura-2/AM (5 μM) (Invitrogen), and cytosolic Ca^2+ (measured as F340/F380 ratio) was recorded simultaneously in 10-20 individual cells using a dual-excitation fluorescence imaging system (Intracellular Imaging, USA): representative traces show an average (±SEM) for 10-20 cells recorded simultaneously. Ca^2+ changes were calculated as Δ Ratio(F340/F380), which is the difference between the basal and peak values of Ca^2+ responses.
(§2) The following treatments were used in Ca^2+ studies (FIG. 14): TPEN (N,N,N′,N′-Tetrakis(2-pyridylmethyl)ethylenediamine, Sigma, USA) was applied (400 μM) directly to the cells during recording, 3 min before 2 mM Ca^2+ addition; (S)-BEL ((S)-bromoenol lactone, Cayman, USA) was applied (50 μM for 20 min in serum-free medium at 37° C.) to the cells after their loading with fura-2/AM, and was washed away before the start of experiment; EGTA (2.5 mM) was added to 2 mM Ca^2+-containing bath solution right before ionomycin (IM, 1 μM) application.

Another test relates to PLA2g6. As to the kind of experiment: PLA2g6 catalytic activity in homogenates of brain or MEFs. The test is classed as biochemical, mouse. To be noted: no differences between KO^Ex2 and WT. The protocol: The activity of PLA2g6 (FIG. 14) was determined using modified PLA2 assay kit (Cayman, USA), as previously described (56, 63). Briefly, after each experimental treatment, MEFs were homogenized using a cold lysis buffer (10 mM Tris-HCl, pH 7.0, 300 mM sucrose, 0.5% Triton X-100). To identify specific activity of Ca^2+-independent PLA2g6, the assay buffers were modified to contain no Ca^2+, and phospholipase activity was assayed by incubating the samples with the substrate, 1-hexadecyl-2-arachidonoylthio-2-deoxy-sn-glycero-3-phosphorylcholine for 1 h at room temperature in a modified Ca^2+-free assay buffer (10 mM HEPES, pH 7.4, 300 mM NaCl, 60% glycerol, 8 mM Triton X-100, 4 mM EGTA, and 2 mg/ml bovine serum albumin). The generated free thiols were visualized by the addition of DTNB (5,5′-dithiobis(2-[…])) for 5 min, and the absorbance was determined at 405 nm using a standard microplate reader. In calculations of specific PLA2g6 activity a value of 10 mM^−1 was used as extinction coefficient for DTNB at 405 nm. Summary data present average (±SEM) from 3 independent experiments for each condition.

The test system of test [2] is intracellular Ca^2+ stores. As to the kind of experiment: Ca^2+ imaging, ionomycin-induced Ca^2+ release from intracellular stores in MEFs. Type of test: cell-based, mouse. To be noted: MEFs from KO^Ex2 mice compared to WT; IM 1 μM, extracellular EGTA. Here is the method: as §1, §2
For the next test, the system named is KO^Ex2 mice. Nature of the test: L-DOPA challenge, beam balance test. The test is classed as in vivo, mouse. Here is the method: The balance beam test (FIG. 10d) was performed using standard approach (55). […] KO^ex2 and WT males from 8 to 24 month of age were tested. Each mouse was placed on a beam for 2 minutes, and its movement was recorded by video camera. The total travel distance, the number of missteps (paw faults, or slips) during travel were analyzed for each mouse, and data summarized for each group as mean±SEM; the numbers of animals used for each time point is identified on the graphs. L-DOPA challenge test (FIG. 10e) was performed on KO^ex2 and WT littermates mice at 12, 16 and 24 months of age. Control beam balance test was performed in the morning a day before L-DOPA challenge. In the morning of the following day, all mice received a single dose of L-3,4-dihydroxyphenylalanine (L-DOPA) via peritoneal injection. Three different doses (5, 10 and 25 mg/kg, Sigma) were tested on the same groups of animals in separate experiments performed with 2-3 days intervals. During each test 20 minutes before L-DOPA administration, mice were given 6 mg/kg of Benserazide (Sigma) to inhibit peripheral DOPA decarboxylase. Beam balance test was done 1 h after L-DOPA injection, as described above. Video-recorded data for each mouse were analyzed later, and summarized for each group as mean±SEM; the numbers of animals used for these studies is identified on the graphs.

On to `O=C1O/C(=C/Br)CC[C@H]1c1cccc2ccccc12` [S-BEL, (S)-bromoenol lactone], for which, in test [1] (S-BEL 50 μM for 20 min pretreatment), the “effect on TPEN-induced Ca^2+ entry” value is “S-BEL-sensitive”. Moreover, in the test on PLA2g6, the “effect on PLA2g6 catalytic activity” value is reported as “inhibition”.
Consider `c1ccc(CN(CCN(Cc2ccccn2)Cc2ccccn2)Cc2ccccn2)nc1` [TPEN, N,N,N′,N′-Tetrakis(2-pyridylmethyl)ethylenediamine], for which, in test [1] (TPEN 400 μM), the “store-operated Ca^2+ entry” value is reported as “activated”.
Take `O=C(O)CN(CCOCCOCCN(CC(=O)O)CC(=O)O)CC(=O)O` [EGTA]: the “effect on PLA2g6 catalytic activity” value in the test with PLA2g6 was “activation”.
`C[C@H](CCC(=O)O)C[C@H](C)C[C@H](C)C(=O)/C=C(\O)[C@H](C)C[C@H](C)C/C=C/[C@@H](C)[C@@H](O)[C@@H](C)[C@@H](O)C[C@@H]1CC[C@@](C)([C@H]2CC[C@@](C)([C@@H](C)O)O2)O1` [ionomycin]: in test [2], the “decrease in the peak of Ca^2+ release caused by ionomycin” value is given as 60%.
`N[C@@H](Cc1ccc(O)c(O)c1)C(=O)O` [L-DOPA, L-3,4-dihydroxyphenylalanine]: the “number of missteps in beam balance test” value in the test with KO^Ex2 mice (KO^Ex2 mice at 12, 16 and 24 months, L-DOPA 5-25 mg/kg, dose and age-dependent manner) is listed as “significantly reduced”. In the test with KO^Ex2 mice (KO^Ex2 mice, L-DOPA 5-25 mg/kg peritoneal injection, Benserazide 6 mg/kg 20 min before, test 1 h after injection), the “motor performance (PD-like motor dysfunction)” value is listed as “significantly improved”.

For the origin of these results see US10390521B2, “Parkinsons disease model and methods” (Boston Medical Center Corporation, priority 2013, dated 2019).
